# In patent US20030113704A1, “Methods for inactivation of pathogens in biological materials” (priority 2000, published 2003):
# Legend:
# [1] = system: Cell-Free HIV; assay: Viral inactivation in leukoreduced PRBC with Erythrosol (Example 5), cell-free HIV; format: cell-based, Human Immunodeficiency Virus; details: red cells, 0.2 mM inactivation compound, 3 mM glutathione, two hours at RT
# [2] = system: Cell-Associated HIV; assay: Viral inactivation in leukoreduced PRBC with Erythrosol (Example 5), cell-associated HIV; format: cell-based, Human Immunodeficiency Virus; details: red cells, 0.2 mM inactivation compound, 3 mM glutathione, two hours at RT
# [3] = system: Duck Hepatitis B Virus (DHBV); assay: Viral inactivation in leukoreduced PRBC with Erythrosol (Example 5), DHBV; format: cell-based; details: red cells, 0.1 mM inactivation compound, 3 mM glutathione, two hours at RT
# [4] = system: Herpes Simplex Virus (HSV); assay: Viral inactivation in leukoreduced PRBC with Erythrosol (Example 5), HSV; format: cell-based; details: red cells, 0.003 mM inactivation compound, 3 mM glutathione, two hours at RT
# [5] = system: Bovine Viral Diarrhea Virus (BVDV); assay: Viral inactivation in leukoreduced PRBC with Erythrosol (Example 5), BVDV; format: cell-based; details: red cells, 0.1 mM inactivation compound, 1 mM glutathione, two hours at RT
# [6] = system: Respiratory Synctial Virus (RSV); assay: Viral inactivation in leukoreduced PRBC with Erythrosol (Example 5), RSV; format: cell-based; details: red cells, 0.2 mM inactivation compound, 2 mM glutathione, two hours at RT
# [7] = system: Vesicular Stomatitis Virus type Indiana (VSIV); format: cell-based
# [8] = system: Bluetongue type 11 Virus; assay: Viral inactivation in leukoreduced PRBC with Erythrosol (Example 5), Bluetongue type 11; format: cell-based; details: red cells, 0.2 mM inactivation compound, 2 mM glutathione, two hours at RT
# [9] = system: Yersinia enterocolitica; assay: Bacterial inactivation in leukoreduced PRBC with Erythrosol (Example 5), Y. enterocolitica; format: cell-based; details: red cells, 0.2 mM compound, 2 mM glutathione, two hours at RT
# [10] = system: Serratia marcescens; assay: Bacterial inactivation in leukoreduced PRBC with Erythrosol (Example 5), S. marcescens; format: cell-based; details: red cells, 0.2 mM compound, 2 mM glutathione, two hours at RT
# [11] = system: Escherichia coli K12; assay: Bacterial inactivation in leukoreduced PRBC with Erythrosol (Example 5), E. coli K12; format: cell-based; details: red cells, 0.2 mM compound, 2 mM glutathione, two hours at RT
# [12] = system: Salmonella choleraesuis; assay: Bacterial inactivation in leukoreduced PRBC with Erythrosol (Example 5), S. choleraesuis; format: cell-based; details: red cells, 0.2 mM compound, 2 mM glutathione, two hours at RT
# [13] = system: Pseudomonas aeruginosa; assay: Bacterial inactivation in leukoreduced PRBC with Erythrosol (Example 5), P. aeruginosa; format: cell-based; details: red cells, 0.2 mM compound, 2 mM glutathione, two hours at RT
# [14] = system: Serratia liquifaciens; assay: Bacterial inactivation in leukoreduced PRBC with Erythrosol (Example 5), S. liquifaciens; format: cell-based; details: red cells, 0.2 mM compound, 2 mM glutathione, two hours at RT
# [15] = system: Staphylococcus epidermidis; assay: Bacterial inactivation in leukoreduced PRBC with Erythrosol (Example 5), S. epidermidis; format: cell-based; details: red cells, 0.2 mM compound, 2 mM glutathione, two hours at RT
# [16] = system: Staphylococcus aureus; assay: Bacterial inactivation in leukoreduced PRBC with Erythrosol (Example 5), S. aureus; format: cell-based; details: red cells, 0.2 mM compound, 2 mM glutathione, two hours at RT
# [17] = system: Deinococcus radiodurans; assay: Bacterial inactivation in leukoreduced PRBC with Erythrosol (Example 5), D. radiodurans; format: cell-based; details: red cells, 0.2 mM compound, 2 mM glutathione, two hours at RT
# [18] = system: Listeria monocytogenes; assay: Bacterial inactivation in leukoreduced PRBC with Erythrosol (Example 5), L. monocytogenes; format: cell-based; details: red cells, 0.2 mM compound, 2 mM glutathione, two hours at RT
# [19] = system: Bacilus subtilis; assay: Bacterial inactivation in leukoreduced PRBC with Erythrosol (Example 5), B. subtilis; format: cell-based; details: red cells, 0.2 mM compound, 2 mM glutathione, two hours at RT
structure (smiles),measurement,setting,value
"O=C(CCNc1c2ccccc2nc2ccccc12)OCCN(CCCl)CCCl [β-alanine, N-(acridin-9-yl), 2-[bis(2-chloroethyl)amino]ethyl ester]",Log inactivation Cell-Free HIV,[1],>6.5 log
same,Log inactivation Cell-Associated HIV,[2],>6.2 log
same,Log inactivation DHBV,[3],>6.3 log
same,Log inactivation HSV,[4],>6.0 log
same,Log inactivation BVDV,[5],>7.3 log
same,Log inactivation RSV,[6],5.6 log
same,Log inactivation VSIV,[7],5.7 log
same,Log inactivation Bluetongue type 11,[8],6.0 log
same,Log inactivation Yersinia enterocolitica,[9],7.4 log
same,Log inactivation Serratia marcescens,[10],4.1 log
same,Log inactivation Eseherichia coli K12,[11],7.4 log
same,Log inactivation Salmonella choleraesuis,[12],4.8 log
same,Log inactivation Pseudomonas aeruginosa,[13],4.5 log
same,Log inactivation Serratia liquifaciens,[14],3.8 log
same,Log inactivation Staphylococcus epidermidis,[15],>6.9 log
same,Log inactivation Staphylococcus aureus,[16],>5.1 log
same,Log inactivation Deinococcus radiodurans,[17],>6.0 log
same,Log inactivation Listeria monocytogenes,[18],>7.1 log
same,Log inactivation Bacilus subtilis,[19],>6.3 log
